Results as given in ChEMBL document CHEMBL1201862, “PubChem BioAssay data set” (2004).
Calls of active or inactive are those of the source. Cut-off read from the data, not from the text of the source, for most assays here: actives have a measured EC50 and inactives only a lower limit.

Key:
H4 = assay: Luminescence Cell-Based Dose Response HTS to Identify Activators of 5'UTR Stem-Loop Driven Prion Protein mRNA Translation in H4 Neuroglioblastoma Cells. [Related pubchem assays: 1829 (Project Summary), 1814 (Primary HTS)]; format: functional; settings: Homo sapiens
[1] = Luminescence Cell-Based Dose Confirmation HTS to Identify Activators of 5'UTR Stem-Loop Driven Alpha-Synuclein mRNA Translation in H4 Neuroglioblastoma Cells. [Related pubchem assays: 1829 (Project Summary), 1814 (Primary HTS)]; format: functional
[2] = Luminescence Cell-Based Dose Response HTS to Identify Activators of Luciferase Translation or Activity in H4 […] Cells. [Related pubchem assays: 1829 (Project Summary), 1814 (Primary HTS)]; format: functional
[3] = Trypanosoma cruzi growth suppression in host cells – NIH3T3 host cells, beta-gal luminescence, confirmation (AID 2044); format: functional, cell-based;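 note: intracellular parasites grown in NIH/3T3 mouse fibroblasts as host cells; luminescent beta-galactosidase reporter signal from transgenic T. cruzi replicating inside host cells; inhibitors lower the luminescence signal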
[4] = molecular target: T1, Zinc finger protein mex-5 (Caenorhabditis elegans, UniProt Q9XUB2); assay: potency of MEX-5 RNA-binding blockers – biochemical, C. elegans, fluorescence polarization, dose response (AID 1960)
T1 sequence (Q9XUB2 whole entry): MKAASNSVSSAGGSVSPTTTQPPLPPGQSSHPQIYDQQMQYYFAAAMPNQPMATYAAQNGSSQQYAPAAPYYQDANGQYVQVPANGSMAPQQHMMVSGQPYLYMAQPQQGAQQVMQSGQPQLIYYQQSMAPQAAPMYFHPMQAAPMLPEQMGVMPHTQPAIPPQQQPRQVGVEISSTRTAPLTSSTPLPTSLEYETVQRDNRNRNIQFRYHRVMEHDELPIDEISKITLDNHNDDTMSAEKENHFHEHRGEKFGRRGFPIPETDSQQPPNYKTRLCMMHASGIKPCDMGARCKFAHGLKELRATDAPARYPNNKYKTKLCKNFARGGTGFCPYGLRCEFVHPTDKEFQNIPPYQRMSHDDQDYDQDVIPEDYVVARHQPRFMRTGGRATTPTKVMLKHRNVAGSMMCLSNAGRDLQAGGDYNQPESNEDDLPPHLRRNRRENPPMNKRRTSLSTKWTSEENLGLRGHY

[5] = molecular target: T2, RNA-binding protein pos-1 (Caenorhabditis elegans, UniProt G5EF15); assay: disruptors of C. elegans POS-1 RNA interaction – biochemical, fluorescence polarization, dose response (AID 1964);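 note: purified POS-1 fused to maltose binding protein made in E. coli; potency of compounds blocking POS-1 binding to fluorescent RNA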
T2 sequence (G5EF15 whole entry): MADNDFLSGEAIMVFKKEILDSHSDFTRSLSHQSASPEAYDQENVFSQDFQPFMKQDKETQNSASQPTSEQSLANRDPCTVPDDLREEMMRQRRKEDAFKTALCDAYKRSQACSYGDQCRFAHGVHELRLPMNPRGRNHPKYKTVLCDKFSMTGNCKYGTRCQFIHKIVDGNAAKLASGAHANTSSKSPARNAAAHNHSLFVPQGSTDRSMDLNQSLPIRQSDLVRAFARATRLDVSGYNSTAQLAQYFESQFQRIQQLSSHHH

[6] = NIH3T3 cell viability loss – ATP luminescence, mouse fibroblasts, counter-screen, dose response (AID 2010); format: functional, cell-based;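 note: cells exposed to compound for about 90 hours before reading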
[7] = molecular target: T3, Replicative DNA helicase DnaB (Mycobacterium tuberculosis, UniProt P9WMR3); assay: DnaB intein splicing inhibitors, dose response, biochemical, cell-free fluorescence (AID 449749); format: functional
T3 sequence (P9WMR3 whole entry): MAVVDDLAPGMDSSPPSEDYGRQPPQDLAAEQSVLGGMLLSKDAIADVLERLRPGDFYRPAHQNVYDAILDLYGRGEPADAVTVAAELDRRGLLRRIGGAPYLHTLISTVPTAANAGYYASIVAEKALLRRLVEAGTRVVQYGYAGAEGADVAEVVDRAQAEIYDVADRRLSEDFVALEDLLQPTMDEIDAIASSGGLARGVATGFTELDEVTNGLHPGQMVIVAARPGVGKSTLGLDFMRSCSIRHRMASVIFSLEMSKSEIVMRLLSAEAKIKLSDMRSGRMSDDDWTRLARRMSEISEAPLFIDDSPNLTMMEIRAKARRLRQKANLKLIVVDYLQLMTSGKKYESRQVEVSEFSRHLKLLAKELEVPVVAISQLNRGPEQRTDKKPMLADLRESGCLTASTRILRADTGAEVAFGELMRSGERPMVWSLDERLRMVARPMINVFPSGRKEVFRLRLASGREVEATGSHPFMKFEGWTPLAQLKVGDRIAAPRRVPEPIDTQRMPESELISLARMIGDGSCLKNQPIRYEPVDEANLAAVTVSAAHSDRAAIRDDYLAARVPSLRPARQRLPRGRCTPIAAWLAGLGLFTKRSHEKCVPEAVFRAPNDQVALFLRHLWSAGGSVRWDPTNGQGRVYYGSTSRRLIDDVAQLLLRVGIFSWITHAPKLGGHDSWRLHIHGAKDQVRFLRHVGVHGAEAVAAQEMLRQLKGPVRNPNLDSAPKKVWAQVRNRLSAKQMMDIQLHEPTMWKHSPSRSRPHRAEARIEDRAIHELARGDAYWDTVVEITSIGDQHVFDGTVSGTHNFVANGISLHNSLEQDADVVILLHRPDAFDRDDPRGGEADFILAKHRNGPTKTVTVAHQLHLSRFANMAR

[8] = viability of PTEN-deleted HCT116 cells – cell-based, HCT116 PTEN knockout, dose response (AID 1047); format: functional;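 note: HCT116 colon tumor cells with PTEN knocked out; cells exposed to compound for 60 hours before readout; potency for loss of cell viability measured by luminescence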
[9] = viability of HCT116 lacking mutant beta-catenin – cell-based, human colon tumor, dose response (AID 1045); format: functional;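 note: HCT116 colon tumor cells with beta catenin knocked out; cells exposed to compound for 60 hours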
Protein RecA = molecular target: T4, Protein RecA (Mycobacterium tuberculosis, UniProt P9WHJ3); assay: Fluorescence Cell-Free Homogeneous Dose Retest to Identify Inhibitors of RecA-Intein Splicing Activity. [Related pubchem assays (depositor defined):AID2097, AID2223, AID489010, AID492950]; format: functional
T4 sequence (P9WHJ3 whole entry): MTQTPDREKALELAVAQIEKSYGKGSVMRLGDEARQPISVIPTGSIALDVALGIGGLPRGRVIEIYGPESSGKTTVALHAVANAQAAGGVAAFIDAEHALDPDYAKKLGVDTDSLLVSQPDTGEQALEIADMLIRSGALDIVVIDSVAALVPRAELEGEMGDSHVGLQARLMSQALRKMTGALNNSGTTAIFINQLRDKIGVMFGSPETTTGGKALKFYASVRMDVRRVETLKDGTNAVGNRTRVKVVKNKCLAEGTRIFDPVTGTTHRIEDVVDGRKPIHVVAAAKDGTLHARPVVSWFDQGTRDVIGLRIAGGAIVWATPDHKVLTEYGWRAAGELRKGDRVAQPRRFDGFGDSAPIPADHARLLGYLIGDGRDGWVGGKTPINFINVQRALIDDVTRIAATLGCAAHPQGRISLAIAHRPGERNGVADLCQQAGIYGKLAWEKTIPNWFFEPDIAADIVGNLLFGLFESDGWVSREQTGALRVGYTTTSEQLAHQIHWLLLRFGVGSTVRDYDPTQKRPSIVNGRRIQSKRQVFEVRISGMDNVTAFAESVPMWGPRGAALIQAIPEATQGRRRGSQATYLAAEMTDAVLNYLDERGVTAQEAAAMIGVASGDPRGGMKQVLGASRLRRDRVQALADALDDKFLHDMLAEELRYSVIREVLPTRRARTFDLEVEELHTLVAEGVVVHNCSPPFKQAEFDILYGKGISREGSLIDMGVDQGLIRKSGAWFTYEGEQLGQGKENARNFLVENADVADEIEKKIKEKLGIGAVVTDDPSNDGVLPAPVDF

[10] = molecular target: Peroxisome proliferator-activated receptor gamma/Nuclear receptor coactivator 3 (Homo sapiens, UniProt P37231); format: functional;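 note: agonist potency for raising coactivator recruitment to the receptor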
[11] = molecular target: Peroxisome proliferator-activated receptor gamma/Nuclear receptor coactivator 2 (Homo sapiens, UniProt P37231); format: functional;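 note: agonist potency for raising coactivator recruitment to the receptor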
[12] = molecular target: Peroxisome proliferator-activated receptor gamma/Nuclear receptor coactivator 1 (Homo sapiens, UniProt P37231); format: functional;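 note: agonist potency as compounds enhance coactivator SRC-1 recruitment to PPARgamma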
[13] = viability of uninfected HEp-2 cells – cell-based, HTS, cytotoxicity control for RSV inhibitor project, dose response (AID 2410); format: functional; settings: human respiratory syncytial virus

Chain of Peroxisome proliferator-activated receptor gamma/Nuclear receptor coactivator 1 (P37231 whole entry): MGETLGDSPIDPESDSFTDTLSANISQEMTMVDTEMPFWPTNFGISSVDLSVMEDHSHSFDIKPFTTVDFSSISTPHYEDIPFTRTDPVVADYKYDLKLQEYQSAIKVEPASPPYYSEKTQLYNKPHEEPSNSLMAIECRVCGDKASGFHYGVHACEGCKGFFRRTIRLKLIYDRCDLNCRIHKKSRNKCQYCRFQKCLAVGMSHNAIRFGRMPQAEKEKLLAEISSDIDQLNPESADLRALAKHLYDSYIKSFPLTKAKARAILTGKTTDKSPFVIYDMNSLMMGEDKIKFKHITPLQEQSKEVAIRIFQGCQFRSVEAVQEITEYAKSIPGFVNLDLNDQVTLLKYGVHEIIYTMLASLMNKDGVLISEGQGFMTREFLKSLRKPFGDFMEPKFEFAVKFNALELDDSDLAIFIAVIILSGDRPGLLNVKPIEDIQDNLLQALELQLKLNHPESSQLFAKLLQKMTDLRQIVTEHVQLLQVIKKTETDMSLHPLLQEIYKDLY
Chain of Peroxisome proliferator-activated receptor gamma/Nuclear receptor coactivator 1 (Q15788 whole entry, further chain): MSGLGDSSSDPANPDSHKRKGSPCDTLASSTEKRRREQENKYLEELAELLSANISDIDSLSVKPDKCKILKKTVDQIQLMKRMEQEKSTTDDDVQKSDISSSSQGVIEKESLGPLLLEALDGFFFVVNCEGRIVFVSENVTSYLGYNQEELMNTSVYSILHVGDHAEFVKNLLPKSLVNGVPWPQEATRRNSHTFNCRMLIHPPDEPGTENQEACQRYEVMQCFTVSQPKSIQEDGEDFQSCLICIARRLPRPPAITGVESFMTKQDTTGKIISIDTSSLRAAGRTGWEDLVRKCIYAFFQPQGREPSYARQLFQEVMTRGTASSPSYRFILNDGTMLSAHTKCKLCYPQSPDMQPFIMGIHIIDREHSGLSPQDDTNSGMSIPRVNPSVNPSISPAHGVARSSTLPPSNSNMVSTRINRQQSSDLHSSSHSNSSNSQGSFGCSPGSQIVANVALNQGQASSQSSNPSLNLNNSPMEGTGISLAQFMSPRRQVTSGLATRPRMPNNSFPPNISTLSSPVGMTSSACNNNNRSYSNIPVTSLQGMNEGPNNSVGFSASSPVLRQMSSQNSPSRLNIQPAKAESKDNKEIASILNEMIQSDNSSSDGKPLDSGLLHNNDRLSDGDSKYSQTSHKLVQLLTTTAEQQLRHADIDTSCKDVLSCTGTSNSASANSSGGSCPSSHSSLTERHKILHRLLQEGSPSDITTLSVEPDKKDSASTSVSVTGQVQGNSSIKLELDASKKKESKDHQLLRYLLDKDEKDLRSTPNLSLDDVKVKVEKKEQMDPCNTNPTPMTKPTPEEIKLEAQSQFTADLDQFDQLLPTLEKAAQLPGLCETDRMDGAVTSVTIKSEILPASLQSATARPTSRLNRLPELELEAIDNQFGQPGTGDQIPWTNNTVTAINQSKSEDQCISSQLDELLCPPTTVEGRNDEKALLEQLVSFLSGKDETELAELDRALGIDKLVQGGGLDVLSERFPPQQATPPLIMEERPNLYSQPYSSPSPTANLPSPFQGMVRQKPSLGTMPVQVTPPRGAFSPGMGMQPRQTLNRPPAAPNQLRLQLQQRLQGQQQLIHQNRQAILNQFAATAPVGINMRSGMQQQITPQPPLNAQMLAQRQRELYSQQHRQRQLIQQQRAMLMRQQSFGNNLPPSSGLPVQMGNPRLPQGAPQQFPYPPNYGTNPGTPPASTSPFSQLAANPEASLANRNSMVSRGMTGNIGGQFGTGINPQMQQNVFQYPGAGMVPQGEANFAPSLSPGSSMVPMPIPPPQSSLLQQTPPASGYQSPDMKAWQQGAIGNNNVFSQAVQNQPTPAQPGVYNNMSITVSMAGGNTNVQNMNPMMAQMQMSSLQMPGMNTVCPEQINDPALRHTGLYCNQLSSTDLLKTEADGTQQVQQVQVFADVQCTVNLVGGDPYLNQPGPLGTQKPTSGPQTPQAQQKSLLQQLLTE
Chain of Peroxisome proliferator-activated receptor gamma/Nuclear receptor coactivator 2 (P37231 whole entry): as the sequence (P37231 whole entry) above
Chain of Peroxisome proliferator-activated receptor gamma/Nuclear receptor coactivator 2 (Q15596 whole entry, further chain): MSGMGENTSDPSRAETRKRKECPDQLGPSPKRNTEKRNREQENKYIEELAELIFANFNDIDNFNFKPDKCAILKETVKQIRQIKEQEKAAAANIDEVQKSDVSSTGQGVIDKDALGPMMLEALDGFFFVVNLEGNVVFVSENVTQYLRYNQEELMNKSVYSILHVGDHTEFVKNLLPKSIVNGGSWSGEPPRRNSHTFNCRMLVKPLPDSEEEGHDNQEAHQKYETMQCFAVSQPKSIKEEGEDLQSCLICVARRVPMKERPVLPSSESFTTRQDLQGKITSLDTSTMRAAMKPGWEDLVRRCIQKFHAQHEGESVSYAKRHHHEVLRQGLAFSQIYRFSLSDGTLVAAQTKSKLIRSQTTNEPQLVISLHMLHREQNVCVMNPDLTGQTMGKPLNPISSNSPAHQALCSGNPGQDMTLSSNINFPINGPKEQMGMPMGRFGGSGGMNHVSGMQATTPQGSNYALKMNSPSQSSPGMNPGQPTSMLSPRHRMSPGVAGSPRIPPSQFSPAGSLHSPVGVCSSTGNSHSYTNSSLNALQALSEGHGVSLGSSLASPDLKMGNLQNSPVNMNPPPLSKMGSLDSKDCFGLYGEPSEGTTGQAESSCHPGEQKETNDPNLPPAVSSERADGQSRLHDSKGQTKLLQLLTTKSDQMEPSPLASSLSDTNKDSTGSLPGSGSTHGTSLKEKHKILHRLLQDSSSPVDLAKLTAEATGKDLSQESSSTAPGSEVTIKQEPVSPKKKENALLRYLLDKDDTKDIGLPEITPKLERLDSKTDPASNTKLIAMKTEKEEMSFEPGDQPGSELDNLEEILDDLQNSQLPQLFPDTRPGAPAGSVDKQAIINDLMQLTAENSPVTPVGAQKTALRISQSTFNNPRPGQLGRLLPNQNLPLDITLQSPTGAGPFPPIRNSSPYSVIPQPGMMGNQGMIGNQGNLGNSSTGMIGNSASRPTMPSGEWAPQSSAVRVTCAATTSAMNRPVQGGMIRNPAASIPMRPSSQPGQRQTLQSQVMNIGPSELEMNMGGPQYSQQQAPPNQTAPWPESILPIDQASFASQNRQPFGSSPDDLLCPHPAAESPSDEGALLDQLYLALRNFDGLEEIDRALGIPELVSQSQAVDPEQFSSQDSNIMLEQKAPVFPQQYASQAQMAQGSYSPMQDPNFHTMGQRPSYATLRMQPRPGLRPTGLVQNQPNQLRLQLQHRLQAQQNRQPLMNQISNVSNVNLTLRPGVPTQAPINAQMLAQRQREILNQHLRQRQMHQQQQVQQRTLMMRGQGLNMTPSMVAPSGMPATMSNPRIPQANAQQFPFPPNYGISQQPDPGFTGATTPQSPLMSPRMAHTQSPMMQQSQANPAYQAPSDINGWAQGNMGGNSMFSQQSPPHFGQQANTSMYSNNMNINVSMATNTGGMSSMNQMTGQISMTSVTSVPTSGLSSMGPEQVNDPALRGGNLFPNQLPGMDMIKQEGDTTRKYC

c1ccc(SCc2nc(-c3ccncc3)no2)cc1
EC50 (H4): 10.1 µM (active) | EC50 [1]: 14.8 µM (active) | EC50 [2]: 25.8 µM (active)

CCN1CCc2c(sc(NC(=O)c3ccc4ccccc4c3)c2C(N)=O)C1
EC50 [3]: 2.47 µM (active) | EC50 [4]: > 300 µM (inconclusive) | EC50 [5]: 45.5 µM (active) | EC50 [6]: 16.8 µM (active) | EC50 (H4): > 60 µM (not active) | EC50 [1]: 36.5 µM (active) | EC50 [2]: 7.69 µM (active)

COc1ccc(-c2nnc(Sc3nc4ccccc4o3)c3ccccc23)cc1
AC50 [7]: 3.8 µM (active) | EC50 [8]: 18.3 µM (active) | EC50 [9]: 16.2 µM (active) | EC50 (Protein RecA): 0.703 µM (active)

CCCc1ccc2oc(C(=O)NCCCN3CCOCC3)c(C)c2c1
EC50 (H4): 53.7 µM (active) | EC50 [1]: 18.7 µM (active) | EC50 [2]: 30.8 µM (active)

COc1ccc(-c2noc(Cc3ccccc3OC)n2)cc1
EC50 [10]: > 79.4 µM (not active) | EC50 [11]: > 79.4 µM (not active) | EC50 [12]: > 79.4 µM (not active)

O=C(c1cccc(C(F)(F)F)c1)N1CCN(c2cc(O)nnc2-c2ccccc2)CC1
EC50 [10]: > 79.4 µM (not active) | EC50 [11]: > 79.4 µM (not active) | EC50 [12]: > 79.4 µM (not active)

CC(C)(C)NC(=O)CSc1nc(O)cc(=O)n1-c1ccccc1F
EC50 [10]: > 79.4 µM (not active) | EC50 [11]: > 79.4 µM (not active) | EC50 [12]: > 79.4 µM (not active)

CCCOc1cccc(-c2nc3ccccc3c(=O)o2)c1
AC50 [7]: 9.46 µM (active) | EC50 [1]: 26.3 µM (active) | EC50 (Protein RecA): 6.81 µM (active) | EC50 [2]: 16.3 µM (active)

C#CCn1/c(=N/C(=O)c2ccc(Cl)s2)sc2cccc(OC)c21
EC50 [10]: 21.5 µM (not active) | EC50 [11]: 12.8 µM (not active) | EC50 [12]: 18.4 µM (not active) | CC50 [13]: 19.1 µM (active)

N#Cc1c(NC(=O)C2CC2)sc2c1CCCCC2
EC50 (H4): > 120 µM (not active) | EC50 [1]: 34.7 µM (active) | EC50 [2]: 81.4 µM (active)

CC(C)(C)c1ccc(-c2nnc3sc(-c4ccncc4)nn23)cc1
EC50 [10]: > 79.4 µM (not active) | EC50 [11]: > 79.4 µM (not active) | EC50 [12]: > 79.4 µM (not active)

Cc1ccc(NC(=O)c2cn(-c3cccc(C)n3)cn2)cc1
EC50 (H4): > 120 µM (not active) | EC50 [1]: 0.157 µM (active) | EC50 [2]: 0.269 µM (active)
